Assay results published in patent US9840494B2, “Quinazoline derivative” (Tianjin Hemay Oncology Pharmaceutical Co., Ltd., priority 2013, dated 2017).
Counter-ions that a name gives are not always drawn.

Legend:
[1] = Preliminary pharmacokinetic studies; format: in vivo
[2] = MTD assay, single administration to mice; format: in vivo; conditions: ICR male mice, tail intravenous administration, 14 days
Text: MTD Assay for a Single […] to Mice
1. Experimental Animals: ICR male mice, weighing 19-22 g, were purchased from Beijing Vital River Laboratory Animal Technology Co., Ltd., Animal License No. SCXK (Beijing) 2007-0001
2. Experimental Scheme: 21 mice were divided into nine groups: groups I, IV and VI referred to one mouse per group, groups II, V and IIX referred to four mice per group, and group III, VI and IX referred to two mice per group. Compound 4, compound 2 and compound 12 were dissolved in water for injection. Groups I-III were subjected to tail intravenous administration of compound 4 (N-[4-(3-chloro-4-fluorophenylamino)-7-(2-methoxyethoxy)quinazolin-6yl]-2-[piperidin-4-ylidene]acetamide dihydrochloride) at doses of 100 mg/kg, 150 mg/kg, and 200 mg/kg, respectively. The animal response and the weight change were observed after administration, and these animals were sacrificed after 14 days for anatomical observation. Groups IV-VI were subjected to tail intravenous administration of compound 2 (N-[4-(3-chloro-4-fluorophenylamino)-7-(2-methoxyethoxy)quinazolin-6yl]-2-[1-(2-methoxyethyl)piperidin-4-ylidene]acetamide dihydrochloride) at doses of 100 mg/kg, 150 mg/kg, and 200 mg/kg, respectively. The animal response and the weight change were observed after administration, and these animals were sacrificed after 14 days for anatomical observation. Groups VII-IX were subjected to tail intravenous administration of compound 12 (N-[4-(3-ethynylphenylamino-7-(2-ethoxy)quinazolin-6yl]-2-[1-methylpiperidin-4-ylidene]acetamide dihydrochloride) at doses of 100 mg/kg, 150 mg/kg, and 200 mg/kg, respectively. The animal response and the weight change were observed after administration, and these animals were sacrificed after 14 days for anatomical observation.

[3] = FDA application records; cited from earlier work
[4] = Li D et al., Oncogene 2008; cited from earlier work

**Q.** With `C#Cc1cccc(Nc2ncnc3cc(OCC)c(NC(=O)C=C4CCN(C)CC4)cc23)c1` [Compound 12, N-[4-(3-ethynylphenylamino-7-(2-ethoxy)quinazolin-6-yl]-2-[1-methylpiperidin-4-ylidene]acetamidedihydrochloride] as the molecule, how does the “distribution (gathering in the gastrointestinal tract)” value [1] read?
**A.** gathered in the gastrointestinal tract

**Q.** And the oral bioavailability [1]?
**A.** very low

**Q.** What about the Mortality ([2]; 100 mg/kg, 1 animal) of the same molecule?
**A.** 0%

**Q.** What about the “Number of Deaths” value ([2]; 100 mg/kg, 1 animal) of the same molecule?
**A.** 0

**Q.** What about the Mortality ([2]; 150 mg/kg, 4 animals) of the same molecule?
**A.** 50%

**Q.** What about the “Number of Deaths” value ([2]; 150 mg/kg, 4 animals) of the same molecule?
**A.** 2

**Q.** What about the Mortality ([2]; 200 mg/kg, 2 animals) of the same molecule?
**A.** 100%

**Q.** And the “Number of Deaths” value ([2]; 200 mg/kg, 2 animals)?
**A.** 2

**Q.** Which bioavailability [3] does the source give for `CN(C)C/C=C/C(=O)Nc1cc2c(Nc3ccc(F)c(Cl)c3)ncnc2cc1O[C@H]1CCOC1` [Afatinib] here?
**A.** 11.175%

**Q.** What about the MTD [4] of the same molecule?
**A.** 30 mg/kg

**Q.** With `COCCOc1cc2ncnc(Nc3ccc(F)c(Cl)c3)c2cc1NC(=O)C=C1CCNCC1` [Compound 4, N-[4-(3-chloro-4-fluorophenylamino)-7-(2-methoxyethoxy)quinazolin-6yl]-2-[piperidin-4-ylidene]acetamide dihydrochloride] as the molecule, how does the “distribution (gathering in the gastrointestinal tract)” value [1] read?
**A.** gathered in the gastrointestinal tract

**Q.** What about the oral bioavailability [1] of the same molecule?
**A.** very low

**Q.** And the Mortality ([2]; 100 mg/kg, 1 animal)?
**A.** 0%

**Q.** What about the “Number of Deaths” value ([2]; 100 mg/kg, 1 animal) of the same molecule?
**A.** 0

**Q.** And the Mortality ([2]; 150 mg/kg, 4 animals)?
**A.** 0%

**Q.** What about the “Number of Deaths” value ([2]; 150 mg/kg, 4 animals) of the same molecule?
**A.** 0

**Q.** And the Mortality ([2]; 200 mg/kg, 2 animals)?
**A.** 50%

**Q.** And the “Number of Deaths” value ([2]; 200 mg/kg, 2 animals)?
**A.** 1
